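Following 48 hours of exposure in 96-well plates, responses at five concentrations were used to interpolate endpoints linearly. GI50 is the concentration that inhibits growth by half. At the TGI there is no net growth.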
How the values were obtained:
Test in all cases: growth of human tumour cells (NCI), 48 h
EKVX NSCLC = test system: EKVX NSCLC
HCT-15 colon = test system: HCT-15 colon
HL-60(TB) leukemia = test system: HL-60(TB) leukemia
KM12 colon = test system: KM12 colon
LOX IMVI melanoma = test system: LOX IMVI melanoma
NCI-H23 lung = test system: NCI-H23 lung
OVCAR-3 ovarian = test system: OVCAR-3 ovarian
SN12C renal = test system: SN12C renal
SW-620 colon = test system: SW-620 colon
UACC-62 melanoma = test system: UACC-62 melanoma

Compound | TGI (EKVX NSCLC) [µM] | TGI (HCT-15 colon) [µM] | TGI (HL-60(TB) leukemia) [µM] | TGI (KM12 colon) [µM] | TGI (LOX IMVI melanoma) [µM] | TGI (NCI-H23 lung) [µM] | TGI (OVCAR-3 ovarian) [µM] | TGI (SN12C renal) [µM] | TGI (SW-620 colon) [µM] | TGI (UACC-62 melanoma) [µM] | GI50 (EKVX NSCLC) [µM] | GI50 (HCT-15 colon) [µM] | GI50 (HL-60(TB) leukemia) [µM] | GI50 (KM12 colon) [µM] | GI50 (LOX IMVI melanoma) [µM] | GI50 (NCI-H23 lung) [µM] | GI50 (OVCAR-3 ovarian) [µM] | GI50 (SN12C renal) [µM] | GI50 (SW-620 colon) [µM] | GI50 (UACC-62 melanoma) [µM]
CCN(CCO)C(=O)C1(c2ccccc2)CCCCC1 | > 10 | > 10 | > 10 | > 10 | > 10 | > 10 | > 10 | > 10 | > 10 | > 10 |  |  |  |  |  |  |  |  |  | 
CCCCC(=O)c1ccc2ccccc2c1O | > 100 | > 100 | > 100 | > 100 | > 100 | > 100 |  |  | > 100 | > 100 |  |  |  |  |  |  |  |  |  | 
CCOC(=O)NC(=O)c1cn(CCNCCO)c(=O)[nH]c1=O | > 100 | > 100 | > 100 | > 100 | > 100 | > 100 | > 100 | > 100 | > 100 | > 100 |  |  |  |  |  |  |  |  |  | 
CN(CCC(=O)O)C1=Nc2ccc(Cl)cc2C(c2ccccc2)=[N+]([O-])C1 | > 100 | > 100 | > 100 | > 100 | > 100 | > 100 | > 100 | > 100 | > 100 | > 100 |  |  |  |  |  |  |  |  |  | 
OCCCNc1nc(=S)[nH]c2[nH]ncc12 | > 100 | > 100 | > 100 | > 100 | 84.5 | > 100 | > 100 | > 100 | > 100 | > 100 | 50.7 | 81.9 | > 100 | 38.1 | 25.4 | 51.7 | 31.4 | 41 | 44.3 | 30
[Cl-].[Rh+3].c1cnc2c(c1)ccc1cccnc12.c1cnc2c(c1)ccc1cccnc12.c1cnc2c(c1)ccc1cccnc12 | > 100 | > 100 | > 100 | > 100 | > 100 | > 100 | > 100 | > 100 | > 100 | > 100 |  |  |  |  |  |  |  |  |  | 
c1nc(N2CC2)c2cnn(C3CCCCO3)c2n1 (stereo unspecified) | > 100 | > 100 | > 100 | > 100 | > 100 | > 100 | > 100 | > 100 | > 100 | > 100 |  |  |  |  |  |  |  |  |  | 
C[C@]12CC[C@H](OC(=O)Cc3ccc(N(CCCl)CCCl)cc3)CC1=CC[C@@H]1[C@@H]2CC[C@]2(C)C(=O)CC[C@@H]12 | > 100 | > 100 | > 100 | > 100 | > 100 | > 100 | > 100 | > 100 | > 100 |  |  |  |  |  |  |  |  |  |  | 
O=S(=O)(O)C1=C2Sc3ccccc3N=C2c2ccccc2C1 | 32 | 27.3 | 21.2 | 29.5 | 25.5 | 31.1 | 31.3 | 26.8 | 29.8 | 26.4 |  |  |  |  |  |  |  |  |  | 
Ic1ccc2c(c1)N(c1ccccc1)c1cc(N=c3ccc4nc5ccc(I)cc5n(-c5ccccc5)c-4c3)ccc1N2 | > 100 | > 100 | 58.2 | > 100 |  | > 100 | 16.1 | > 100 | > 100 | > 100 |  |  |  |  |  |  |  |  |  | 
C[N+](C)(C)CCCSc1nc2ccccc2[nH]1 | > 100 | > 100 | > 100 | > 100 | > 100 | > 100 | > 100 | > 100 | > 100 | > 100 |  |  |  |  |  |  |  |  |  | 
CN1CCN(c2ccc3[nH]c(-c4cc(O)c5c(nc(CO)n5C)c4O)nc3n2)CC1 | 85.8 | > 100 | 47.2 | > 100 | 37.9 | > 100 | > 100 | 36.8 | > 100 | 27.8 |  |  |  |  |  |  |  |  |  | 
CCCC/C=C/C/C=C/CCCCCCCCC(=O)OCC1CCCN2CCCCC12 (stereo unspecified) | > 100 | > 100 | > 100 | > 100 | > 100 | > 100 | > 100 | > 100 | > 100 | > 100 |  |  |  |  |  |  |  |  |  | 
